Drawing on PubChem BioAssay (NCI), this text covers TGI and GI50 for 24 compounds.

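These data come from cells grown in 96-well plates and exposed to compound for 48 hours at five concentrations. GI50 marks 50% less growth. At the TGI there is no net growth.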

Among the test systems are CAKI-1 renal; 786-0 renal; SK-MEL-28 melanoma; SF-539 CNS; TK-10 renal; M19-MEL melanoma; HOP-62 NSCLC; NCI-H522 lung; DLD-1 colon; T-47D breast.
Holding throughout (assay): inhibition of tumour cell growth, NCI panel, 48 h

With `NC(=O)c1ncn(C2OC(CO)C(O)C2O)c1O` (centres undefined), the TGI in the assay on CAKI-1 renal, with 786-0 renal, in the assay with SK-MEL-28 melanoma, with SF-539 CNS, with TK-10 renal and in the assay on M19-MEL melanoma was above 100 µM each time. Moreover, the TGI with HOP-62 NSCLC was above 100 µM.
Regarding `Cc1[nH]c2cc([N+](=O)[O-])ccc2c1[N+](=O)[O-]`, the TGI with CAKI-1 renal was 47.1 µM; with 786-0 renal, above 100 µM; in the assay with SK-MEL-28 melanoma it was 77.8 µM; in the assay on NCI-H522 lung, 38.4 µM; with SF-539 CNS, 57.1 µM; with TK-10 renal it was 75.8 µM. Further, the TGI is above 100 µM in the assay on DLD-1 colon and 32.8 µM with HOP-62 NSCLC.
Take `CC1(C)C(=O)/C=C\C(=O)C(C)(C)C(=O)/C=C\C(=O)C(C)(C)C2=CC=C(O2)C(C)(C)C(=O)/C=C\C1=O`: the TGI was found to be 7.91 µM in the assay on CAKI-1 renal; 12.7 µM in the assay with 786-0 renal; 10 µM with SK-MEL-28 melanoma; 18.5 µM in the assay with T-47D breast; 2.22 µM in the assay on NCI-H522 lung; 17.7 µM in the assay on SF-539 CNS. Besides, the TGI in the assay on TK-10 renal amounted to 13.4 µM; in the assay with DLD-1 colon it was 3.61 µM; in the assay with M19-MEL melanoma it was 13.6 µM; in the assay with HOP-62 NSCLC it was 44.7 µM.
As for `CN(C)N=Nc1ccc(S(N)(=O)=O)cc1`, the TGI with CAKI-1 renal, in the assay on 786-0 renal, in the assay with SK-MEL-28 melanoma, in the assay with NCI-H522 lung, in the assay with SF-539 CNS and with TK-10 renal was above 100 µM each time. Further, the TGI with DLD-1 colon, with M19-MEL melanoma and with HOP-62 NSCLC was above 100 µM in each case.
For the compound `N#CC(/C(CCCC(=O)Nc1cccc([N+](=O)[O-])c1)=N\NC(=O)c1c(O)ccc2ccccc12)c1nc2ccccc2s1` (centres undefined), the TGI is above 100 µM in the assay with CAKI-1 renal; above 100 µM in the assay with 786-0 renal; above 100 µM in the assay on SK-MEL-28 melanoma; above 100 µM in the assay with NCI-H522 lung; 66.3 µM with SF-539 CNS; above 100 µM in the assay with DLD-1 colon. For the same compound, the TGI stood at 46.6 µM in the assay on M19-MEL melanoma and 95.4 µM in the assay on HOP-62 NSCLC.
`O=C(CCc1ccccc1)CC1OC(=O)C(Cl)=C1Cl` (centres undefined): the TGI stood at 59.1 µM in the assay with CAKI-1 renal; 37.5 µM with 786-0 renal; 32.9 µM in the assay on SK-MEL-28 melanoma; 28.5 µM in the assay with NCI-H522 lung; 76.7 µM with SF-539 CNS; 57.7 µM with TK-10 renal. For the same compound, the TGI in the assay with DLD-1 colon is 32.8 µM; in the assay on M19-MEL melanoma it was 33.8 µM; in the assay on HOP-62 NSCLC, 55.6 µM.
`CN1CCN(c2nc(N)c(Br)c(Cl)n2)CC1`: the TGI in the assay on CAKI-1 renal, in the assay with 786-0 renal, with SK-MEL-28 melanoma, in the assay with NCI-H522 lung, with TK-10 renal and with DLD-1 colon was above 100 µM in each case. Besides, the TGI in the assay with M19-MEL melanoma and in the assay on HOP-62 NSCLC was above 100 µM each time.
Turning to `COC(=O)[C@@]12C3=NO[C@]1(C(=O)OC)C(O[Si](C)(C)C(C)(C)C)[C@@H](OC(C)=O)[C@@H](OC(C)=O)[C@@H]2[C@@H](OCc1ccccc1)CC3` (some centres undefined), the TGI in the assay on CAKI-1 renal, in the assay with 786-0 renal, with SK-MEL-28 melanoma, in the assay on NCI-H522 lung, with SF-539 CNS and in the assay with TK-10 renal was above 100 µM in each case. Further, the TGI with DLD-1 colon, with M19-MEL melanoma and with HOP-62 NSCLC was above 100 µM each time.
For `COc1ccc(C(=O)C(C(=O)C(=O)NCCCNC(=O)C(=O)C(C(=O)c2ccc(OC)cc2)c2ccc(OC)cc2)c2ccc(OC)cc2)cc1` (centres undefined), the TGI in the assay with 786-0 renal, in the assay with SK-MEL-28 melanoma, in the assay with NCI-H522 lung, with SF-539 CNS, with TK-10 renal and in the assay with DLD-1 colon was above 100 µM each time. In the assay with HOP-62 NSCLC, the TGI was above 100 µM.
For `CC1=C2C=CC(=O)C[C@@]2(C)CCC1`, the TGI in the assay on CAKI-1 renal, in the assay on 786-0 renal, in the assay on SK-MEL-28 melanoma, with NCI-H522 lung, in the assay on SF-539 CNS and with TK-10 renal was above 100 µM throughout. Moreover, the TGI in the assay with DLD-1 colon, in the assay with M19-MEL melanoma and in the assay with HOP-62 NSCLC was above 100 µM throughout.
Regarding `CCOC(=O)C1C(=O)CC(=O)C2CCCCC21` (centres undefined), the TGI with CAKI-1 renal, in the assay on 786-0 renal, with SK-MEL-28 melanoma, in the assay with NCI-H522 lung, in the assay with SF-539 CNS and in the assay with TK-10 renal was above 100 µM in each case. The TGI with DLD-1 colon and in the assay with HOP-62 NSCLC was above 100 µM in each case.
`CC(=O)[CH-]C(=O)c1ccccc1.CC(=O)[CH-]C(=O)c1ccccc1.CC(=O)[CH-]C(=O)c1ccccc1.[Ga+3]`: the GI50 is 30.8 µM with CAKI-1 renal; 18.2 µM with 786-0 renal; 16.5 µM in the assay on SK-MEL-28 melanoma; 12.1 µM in the assay with NCI-H522 lung; 16.5 µM in the assay on SF-539 CNS; 24 µM in the assay on TK-10 renal. Further, the GI50 with DLD-1 colon was 16.6 µM; in the assay with M19-MEL melanoma it was 13.4 µM; in the assay on HOP-62 NSCLC, 29 µM. For the same compound, the TGI with CAKI-1 renal amounted to 80 µM; in the assay on 786-0 renal, 37.1 µM; with SK-MEL-28 melanoma it was 30.9 µM; with NCI-H522 lung, 25 µM; with SF-539 CNS, 32.3 µM; with TK-10 renal, 68.6 µM. In addition, the TGI was 53.6 µM in the assay with DLD-1 colon, 30.5 µM with M19-MEL melanoma and 60.9 µM in the assay with HOP-62 NSCLC.
With `O=C(N/C(=C\c1ccc(/C=C(\NC(=O)c2ccccc2)c2nc3c(O)nc(S)nc3[nH]2)cc1)c1nc2c(O)nc(S)nc2[nH]1)c1ccccc1`, the TGI in the assay on CAKI-1 renal is above 100 µM; in the assay on 786-0 renal, above 100 µM; in the assay on SK-MEL-28 melanoma, above 100 µM; in the assay on NCI-H522 lung, 41.1 µM; in the assay with SF-539 CNS, above 100 µM; in the assay with TK-10 renal, above 100 µM. For the same compound, the TGI in the assay on DLD-1 colon and with HOP-62 NSCLC was above 100 µM throughout.
Turning to `N#Cc1ccc(C2SCc3nc4ccccc4n32)cc1` (centres undefined), the TGI in the assay on CAKI-1 renal is above 100 µM; in the assay on 786-0 renal, above 100 µM; with SK-MEL-28 melanoma it was above 100 µM; with NCI-H522 lung it was 75.8 µM; with SF-539 CNS, above 100 µM; in the assay with TK-10 renal, above 100 µM. For the same compound, the TGI in the assay with DLD-1 colon, in the assay on M19-MEL melanoma and in the assay with HOP-62 NSCLC was above 100 µM each time.
In the case of `CC(=O)C1C(=O)C(=O)N(CCN2C(=O)C(=O)C(C(C)=O)C2=O)C1=O` (centres undefined), the TGI in the assay with CAKI-1 renal, in the assay with 786-0 renal, in the assay with SK-MEL-28 melanoma, in the assay on NCI-H522 lung, with SF-539 CNS and in the assay on TK-10 renal was above 100 µM in each case. Further, the TGI with M19-MEL melanoma and in the assay with HOP-62 NSCLC was above 100 µM each time.
In the case of `CC(=O)CC(=O)Nc1ccccc1C(F)(F)F`, the TGI with CAKI-1 renal, in the assay with 786-0 renal, with SK-MEL-28 melanoma, with NCI-H522 lung, with SF-539 CNS and in the assay with TK-10 renal was above 100 µM in each case. Moreover, the TGI in the assay with DLD-1 colon, with M19-MEL melanoma and with HOP-62 NSCLC was above 100 µM each time.
With `CCN(CC)C(=S)SS(C)(=O)=O`, the TGI with CAKI-1 renal is 57.1 µM; in the assay on 786-0 renal it was 33.3 µM; in the assay on NCI-H522 lung it was 0.137 µM; in the assay on SF-539 CNS it was 43.7 µM; in the assay with TK-10 renal it was 32.2 µM; in the assay with DLD-1 colon, 33.3 µM. For the same compound, the TGI was found to be 30.6 µM with M19-MEL melanoma and 40.2 µM with HOP-62 NSCLC.
With `CSc1nnc(C(C#N)C#N)nn1`, the TGI in the assay on CAKI-1 renal, with 786-0 renal, in the assay on NCI-H522 lung, with SF-539 CNS, in the assay on TK-10 renal and in the assay on DLD-1 colon was above 100 µM each time. Moreover, the TGI in the assay on M19-MEL melanoma and with HOP-62 NSCLC was above 100 µM in each case.
For the compound `COC1/C(=C\C(C)=O)c2ccccc2N1C(C)=O` (centres undefined), the TGI in the assay on CAKI-1 renal, in the assay with 786-0 renal, with SK-MEL-28 melanoma, in the assay with SF-539 CNS, with DLD-1 colon and in the assay with M19-MEL melanoma was above 100 µM each time. Moreover, the TGI in the assay on HOP-62 NSCLC is above 100 µM.
Regarding `CCN(CC)c1ccc(C2N3CCCCC3[C@@H]3c4[nH]c5ccccc5c4CCN23)cc1` (some centres undefined), the TGI in the assay with CAKI-1 renal was above 100 µM; in the assay with 786-0 renal, above 100 µM; with SK-MEL-28 melanoma it was 58 µM; in the assay with SF-539 CNS, 41.6 µM; in the assay on TK-10 renal it was 86.1 µM; with DLD-1 colon it was above 100 µM. The TGI in the assay on M19-MEL melanoma is 57.1 µM; in the assay with HOP-62 NSCLC it was above 100 µM.
Consider `Cc1cc(Br)ccc1N=Nc1c(C)nn(-c2ccccc2)c1-c1ccccc1`, for which the TGI in the assay on CAKI-1 renal, in the assay with 786-0 renal, with SK-MEL-28 melanoma, with NCI-H522 lung, with SF-539 CNS and in the assay on TK-10 renal was above 100 µM throughout. For the same compound, the TGI in the assay with DLD-1 colon, with M19-MEL melanoma and in the assay on HOP-62 NSCLC was above 100 µM in each case.
For `O=C1/C(=C/c2ccc([N+](=O)[O-])o2)Oc2ccc(Cl)cc21`, the GI50 was 1.7 µM in the assay on CAKI-1 renal; 2.72 µM in the assay on 786-0 renal; 1.71 µM in the assay with SK-MEL-28 melanoma; 1.67 µM with T-47D breast; 1.31 µM in the assay on NCI-H522 lung; 1.82 µM in the assay on SF-539 CNS. Further, the GI50 was 2.14 µM with TK-10 renal and 4.53 µM with HOP-62 NSCLC. The TGI with CAKI-1 renal turned out to be 3.61 µM; in the assay on 786-0 renal it was 7.06 µM; in the assay with SK-MEL-28 melanoma it was 3.38 µM; with T-47D breast, 5.02 µM; in the assay with NCI-H522 lung it was 2.79 µM; in the assay with SF-539 CNS, 3.97 µM. Also, the TGI in the assay on TK-10 renal was found to be 3.85 µM; in the assay on HOP-62 NSCLC it was 23.9 µM.
Take `COc1cc(O)c(C(=O)/C=C/c2ccc(OC)c(OCc3ccccc3)c2)c(OC)c1`: the TGI in the assay with CAKI-1 renal, with 786-0 renal, with NCI-H522 lung, in the assay on SF-539 CNS, in the assay with TK-10 renal and in the assay with DLD-1 colon was above 100 µM in each case. Moreover, the TGI with M19-MEL melanoma and with HOP-62 NSCLC was above 100 µM in each case.
Turning to `COc1cc(C2NC(=O)C(C#N)=C(Nc3cccc(C)c3)S2)ccc1O` (centres undefined), the GI50 in the assay with CAKI-1 renal, with 786-0 renal, in the assay on SK-MEL-28 melanoma, with T-47D breast, in the assay with NCI-H522 lung and in the assay with SF-539 CNS was above 100 µM throughout. In addition, the GI50 in the assay on TK-10 renal and with HOP-62 NSCLC was above 100 µM throughout. The TGI with CAKI-1 renal, in the assay on 786-0 renal, in the assay with SK-MEL-28 melanoma, with T-47D breast, in the assay with NCI-H522 lung and with SF-539 CNS was above 100 µM throughout. The TGI with TK-10 renal and in the assay on HOP-62 NSCLC was above 100 µM each time.
